Data set [1] has as its system genotypes other than genotype 1. To be noted: cited from earlier work.
Data set [2] can be described thus: Drug-drug interaction study, 2D regimen with digoxin. Format: in vivo, human healthy volunteers. To be noted: for change in the Cmax and AUC values upon coadministration: 2D regimen + digoxin vs 2D regimen alone.
The nature of data set [3]: Drug-drug interaction study, 2D regimen with duloxetine, plasma pharmacokinetics. Format: in vivo, human healthy volunteers. As to conditions: for change in the Cmax and AUC values upon coadministration: duloxetine + 2D regimen vs alone.
The format of data set [4] is in vivo, human healthy volunteers. To be noted: for change in the Cmax and AUC values in the presence of the 2D regimen: except escitalopram AUC.
The conditions of data set [5]: human, in vivo.
Data set [6] is described as follows: Drug-drug interaction study, 2D regimen with ketoconazole. The data set is classed as in vivo, human healthy volunteers. As to conditions: ketoconazole + 2D regimen vs alone.
Data set [7] in a line: Drug-drug interaction study, 2D regimen with warfarin. As to conditions: for change in the Cmax and AUC values upon coadministration: warfarin + 2D regimen vs alone; for Cmax, Coadministration / AUC (AUC∞), Alone: warfarin study, geometric mean (%CV); for Cmax, Coadministration: warfarin + 2D regimen; for AUC (AUC∞), Alone: warfarin without 2D regimen. The data set is classed as in vivo, human healthy volunteers.

Data set [8] is described as follows: Drug-drug interaction study, 2D regimen with omeprazole. Format: in vivo, human healthy volunteers. To be noted: for change in the Cmax and AUC values upon coadministration: 2D regimen + omeprazole vs 2D regimen alone.
A short description of data set [9]: Drug-drug interaction study, 2D regimen with pravastatin. The data set is classed as in vivo, human healthy volunteers. To be noted: for increase in AUC upon coadministration / increase in Cmax upon coadministration: pravastatin + 2D regimen vs alone.
Data set [10] can be described thus: Drug-drug interaction study, 2D regimen with rosuvastatin. Format: in vivo, human healthy volunteers. To be noted: for increase in AUC upon coadministration / increase in Cmax upon coadministration: rosuvastatin + 2D regimen vs alone.
The format of data set [11] is in vivo, human healthy volunteers. To be noted: coadministration vs alone; except in the ketoconazole study.
Data set [12] deals with HCV subtypes 1a, 1b, 2a, 3a, 4a, and 6a. As to conditions: cited from earlier work.
The conditions of data set [13]: in vitro; cited from earlier work.
The conditions of data set [14]: cited from earlier work.
Data set [15] deals with organic anion-transporting polypeptide 1B1/B3 (OATP1B1/B3). As to conditions: in vitro, at clinically relevant concentrations; cited from earlier work.
The subject of the next data set is P-glycoprotein (P-gp). To be noted: in vitro, at clinically relevant concentrations; cited from earlier work.
The test system of data set [16] is breast cancer resistance protein (BCRP). To be noted: in vitro, at clinically relevant concentrations; cited from earlier work.
[17] abbreviates: digoxin + 2D regimen vs digoxin alone.
[18] abbreviates: escitalopram + 2D regimen vs escitalopram alone.
Where [19] appears, read: 2D regimen + rosuvastatin vs 2D regimen alone.
[20] abbreviates: omeprazole + 2D regimen vs omeprazole alone.
Where [21] appears, read: escitalopram study, escitalopram + 2D regimen, geometric mean (%CV).

Each structure is given as a SMILES string. Where two headings read alike, the source gives them in different places. Marks after values point to notes of the source that are not given here.

Take `COc1c(-c2ccc3cc(NS(C)(=O)=O)ccc3c2)cc(-n2ccc(=O)[nH]c2=O)cc1C(C)(C)C` [Dasabuvir, dasabuvir]: the “activity against HCV genotypes other than genotype 1” value in [1] was “not active”.

As for `C[C@H]1O[C@@H](O[C@H]2[C@@H](O)C[C@H](O[C@H]3[C@@H](O)C[C@H](O[C@H]4CC[C@@]5(C)[C@H](CC[C@@H]6[C@@H]5C[C@@H](O)[C@]5(C)[C@@H](C7=CC(=O)OC7)CC[C@]65O)C4)O[C@@H]3C)O[C@@H]2C)C[C@H](O)[C@@H]1O` [Digoxin, digoxin], in [2] (setting [17]), the “increase in AUC upon coadministration” value is reported as 36%, the “increase in C24 upon coadministration” value is 24% and the “increase in Cmax upon coadministration” value is given as 58%. For the same compound, the “ratio of fraction excreted (fraction of unchanged drug eliminated in the urine)” value in [2] (digoxin + 2D regimen vs digoxin alone, urine) worked out at 1.01. The compound further registered an AUC(0-inf) in data set [2] (human, plasma, 0.5 mg) of 27.8 ng·h/mL.

On to `CNCC[C@H](Oc1cccc2ccccc12)c1cccs1` [Duloxetine, duloxetine], for which the “change in the Cmax and AUC values upon coadministration” value in data set [3] is on record as at most 20%. The compound also showed an AUC(0-inf) in data set [3] (human, plasma, oral, 60 mg) of 648 ng·h/mL.

With `CN(C)CCC[C@@]1(c2ccc(F)cc2)OCc2cc(C#N)ccc21` [Escitalopram, escitalopram], in [4] (setting [18]), the “decrease in AUC in the presence of the 2D regimen” value turned out to be 25%; the “change in the Cmax and AUC values in the presence of the 2D regimen” value is listed as at most 20%. This compound also gave an AUC(0-inf) in data set [4] (human, plasma, 10 mg) of 262 ng·h/mL.

In the case of `C=CCN1CC[C@]23c4c5ccc(O)c4O[C@H]2C(=O)CC[C@@]3(O)[C@H]1C5` [Naloxone, naloxone], in data set [5], the “AUC (AUCtau, AUC24), dose normalized, Alone” value is 139 (53)^d^,^j pg · h/ml/mg; the “AUC (AUCtau, AUC24), dose normalized, Coadministration” value is 154 (76)^d^,^j pg · h/ml/mg; the “Cmax, dose normalized, Alone” value is on record as 59.0 (44)^i pg/ml/mg; the “Cmax, dose normalized, Coadministration” value was 58.1 (61)^i pg/ml/mg. Further, the “change in the Cmax and AUC values upon coadministration” value in data set [5] was at most 11%.

As to `COC(=O)N[C@H](C(=O)N1CCC[C@H]1C(=O)Nc1ccc([C@@H]2CC[C@@H](c3ccc(NC(=O)[C@@H]4CCCN4C(=O)[C@@H](NC(=O)OC)C(C)C)cc3)N2c2ccc(C(C)(C)C)cc2)cc1)C(C)C` [Ombitasvir, ombitasvir], the “decrease in Cmax upon coadministration” value in data set [6] was 2%. In addition, the “increase in AUC upon coadministration” value in [6] is 26%. The “change in the Cmax and AUC values upon coadministration” value in data set [7] is on record as at most 15%; in data set [8], at most 7%; in data set [2], at most 15%; in data set [3], at most 10%. Besides, the “decrease in Cmax or AUC value upon coadministration” value in data set [9] (2D regimen + pravastatin vs 2D regimen alone) was at most 6%. Also, in data set [10] (setting [19]), the “change in Cmax and AUC values upon coadministration” value was at most 12%. Further, the “lower Cmax upon coadministration” value in [10] (setting [19]) is 12%. The “Tmax and t1/2 (where calculated)” value in data set [11] is “not affected in a meaningful way”. For the same compound, in data set [12], the “in vitro antiviral activity” value is “show in vitro antiviral activity”. In addition, in [13], the metabolic pathway entry was “predominantly metabolized by amide hydrolysis followed by oxidative metabolism”.

As for `COc1ccc2[nH]c([S+]([O-])Cc3ncc(C)c(OC)c3C)nc2c1` (stereo not drawn) [Omeprazole, omeprazole], the AUC(0-t) in data set [8] (human, plasma, 40 mg) was 1170 ng·h/mL. In addition, in data set [8] (setting [20]), the “decrease in exposures upon coadministration” value is given as “approximately 50%”, the “reduction in AUC in the presence of the 2D regimen” value was 54% and the “reduction in Cmax in the presence of the 2D regimen” value amounted to 52%.

With `Cc1cnc(C(=O)N[C@H]2CCCCC/C=C\[C@@H]3C[C@@]3(C(=O)NS(=O)(=O)C3CC3)NC(=O)[C@@H]3C[C@@H](Oc4nc5ccccc5c5ccccc45)CN3C2=O)cn1` [Paritaprevir, paritaprevir], the “increase in AUC upon coadministration” value is listed as 116% in data set [6], 33% in [9] and 22% in data set [10]. Besides, the “increase in Cmax upon coadministration” value is recorded as 72% in data set [6], 44% in data set [9] and 40% in [10]. The “mean t1/2, fold longer upon coadministration” value in data set [6] is given as “more than 2 fold”. In data set [6] (Cmax and AUC), the “increase in exposures upon coadministration” value was “up to 116%”. For the same compound, the “change in the Cmax and AUC values upon coadministration” value was at most 15% in [7], at most 7% in data set [8], at most 15% in data set [2] and at most 10% in data set [3]. The “Tmax and t1/2 (where calculated)” value in [11] is “not affected in a meaningful way”. Besides, the “exposures higher than those observed with the 150-mg paritaprevir dose” value in data set [14] (paritaprevir 200 mg) is “approximately 93%”; in data set [14] (paritaprevir 250 mg), about 250%. Besides, the “in vitro antiviral activity” value in data set [12] is “show in vitro antiviral activity”. Further, the metabolic pathway result in data set [13] was “primarily metabolized by cytochrome P450 3A (CYP3A)”. Besides, the OATP1B1/B3 inhibition result in data set [15] was “inhibitor”. Moreover, the P-gp inhibition result with P-glycoprotein (P-gp) is “potential inhibitors”. In addition, in [16], the BCRP inhibition result is recorded as “potential inhibitors”.

`CC[C@H](C)C(=O)O[C@H]1C[C@H](O)C=C2C=C[C@H](C)[C@H](CC[C@@H](O)C[C@@H](O)CC(=O)O)[C@H]21` [Pravastatin, pravastatin]: in [9], the “increase in AUC upon coadministration” value is given as 76% and the “increase in Cmax upon coadministration” value was determined as 43%.

As to `CC(=O)C[C@H](c1ccccc1)c1c(O)c2ccccc2oc1=O` [R-Warfarin, R-warfarin], in data set [7], the “Cmax, Coadministration” value is 255 (16) ng/ml and the “AUC (AUC∞), Alone” value is 19,900 (21)^b ng · h/ml.

With `CC(C)c1nc(CN(C)C(=O)N[C@H](C(=O)N[C@@H](Cc2ccccc2)C[C@H](O)[C@H](Cc2ccccc2)NC(=O)OCc2cncs2)C(C)C)cs1` [Ritonavir, ritonavir], the “change in the Cmax and AUC values upon coadministration” value in data set [7] is given as at most 15%; in data set [8] it was at most 7%; in [2], at most 15%; in data set [3], at most 10%. The “increase in AUC upon coadministration” value in [9] was 37%. In addition, the “increase in Cmax upon coadministration” value in data set [9] was determined as 37%. In data set [10] (setting [19]), the “change in Cmax and AUC values upon coadministration” value is reported as at most 12%. Further, the “Tmax and t1/2 (where calculated)” value in data set [11] is on record as “not affected in a meaningful way”. In [13], the metabolic pathway result is “primarily metabolized by cytochrome P450 3A (CYP3A)”.

With `CC(C)c1nc(N(C)S(C)(=O)=O)nc(-c2ccc(F)cc2)c1/C=C/[C@@H](O)C[C@@H](O)CC(=O)O` [Rosuvastatin, rosuvastatin], in data set [10], the “increase in AUC upon coadministration” value is given as 33% and the “increase in Cmax upon coadministration” value is recorded as 161%. In addition, the “increase in exposures upon coadministration” value in data set [10] (rosuvastatin + 2D regimen vs rosuvastatin alone) is reported as at most 161%.

In the case of `CNCCC[C@@]1(c2ccc(F)cc2)OCc2cc(C#N)ccc21` [S-Desmethylcitalopram, S-desmethylcitalopram], the “change in the Cmax and AUC values in the presence of the 2D regimen” value in data set [4] (setting [18]) is reported as at most 20%. In addition, in [4] (setting [21]), the “AUC (AUC∞), Coadministration” value was 167 (11)^b ng · h/ml and the “Cmax, Coadministration” value was 1.77 (26) ng/ml. Besides, the “AUC (AUC∞), Alone” value in data set [4] (escitalopram study, escitalopram without 2D regimen, geometric mean (%CV)) was 153 (16)^b ng · h/ml.

On to `CC(=O)C[C@@H](c1ccccc1)c1c(O)c2ccccc2oc1=O` [S-Warfarin, S-warfarin], for which, in data set [7], the “change in the Cmax and AUC values upon coadministration” value is given as at most 15%; the “Cmax, Coadministration” value is 240 (14) ng/ml; the “AUC (AUC∞), Alone” value is 13,000 (25)^b ng · h/ml.

What is called AUC(0-inf) is the area under the concentration-time curve extrapolated to infinity. A low value points to less exposure. Usually AUC(0-t) stands for exposure summed from dosing to a finite time, without extrapolation to infinity.

Source of the values: article PMC4704150 (Antimicrobial Agents and Chemotherapy, 2015).
